PMC5231411 (Science signaling, 2016)

Tests used:
C57BL/6 mice [1] = experiment: Warm water tail immersion; assay type: in vivo, mouse
male Fisher 344 rats [2] = details: NorBNI 32 mg/kg 24 hours prior; U50,488H 6 mg/kg
male Fisher 344 rats [3] = experiment: Suppression of VTA ICSS by 1.8% lactic acid; assay type: in vivo, rat; details: triazole 1.1 24 mg/kg
C57BL/6 mice [4] = experiment: Chloroquine phosphate-induced scratching; assay type: in vivo, mouse; details: NorBNI 10 mg/kg ip 24 hours prior; triazole 1.1 1 mg/kg sc
[5] = tested on: dopamine release in nucleus accumbens; details: mouse brain slices
human KOR = human KOR (Homo sapiens, UniProt P41145); assay type: biochemical
[6] = tested on: dopamine concentration in nucleus accumbens; experiment: Microdialysis of nucleus accumbens dopamine in freely moving mice; assay type: in vivo, mouse; details: triazole 1.1 15 mg/kg ip
KOR in mouse striatum = KOR in mouse striatum (Mus musculus, UniProt P33534); experiment: [35S]GTPγS binding in mouse striatal membranes; assay type: biochemical
[7] = target: KOR (OPRK1) βarrestin2 recruitment (Homo sapiens, UniProt P41145); experiment: βarrestin2 enzyme fragment complementation assay; assay type: cell-based
C57BL/6J male mice = details: mouse, in vivo
[8] = after systemic dosing; cited from earlier work
KOR [9] = details: compared to reference agonist U69,593; cited from earlier work
striatal KOR = striatal KOR (Mus musculus, UniProt P33534); assay type: binding
KOR [10] = experiment: Bias analysis, G protein; details: reference U50,488H
mice [11] = details: cited from earlier work
KOR [12] = details: cited from earlier work
mice [13] = details: mouse, in vivo; cited from earlier work

Chain of KOR in mouse striatum (P33534 whole entry, the tested form may be a part): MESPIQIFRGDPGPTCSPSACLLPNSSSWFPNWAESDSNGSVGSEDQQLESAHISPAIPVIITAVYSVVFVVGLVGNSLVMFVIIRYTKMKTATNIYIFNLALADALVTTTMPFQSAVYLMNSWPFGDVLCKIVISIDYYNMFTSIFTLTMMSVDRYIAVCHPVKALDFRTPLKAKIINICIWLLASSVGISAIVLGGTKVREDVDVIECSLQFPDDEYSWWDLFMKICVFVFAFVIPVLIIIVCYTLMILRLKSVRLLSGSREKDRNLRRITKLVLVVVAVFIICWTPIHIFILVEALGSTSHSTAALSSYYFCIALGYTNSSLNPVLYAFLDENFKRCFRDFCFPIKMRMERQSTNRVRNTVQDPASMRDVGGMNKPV
Chain of striatal KOR (P33534 whole entry): as the sequence (P33534 whole entry, the tested form may be a part) above
Chain of KOR (OPRK1) βarrestin2 recruitment (P41145 whole entry, the tested form may be a part): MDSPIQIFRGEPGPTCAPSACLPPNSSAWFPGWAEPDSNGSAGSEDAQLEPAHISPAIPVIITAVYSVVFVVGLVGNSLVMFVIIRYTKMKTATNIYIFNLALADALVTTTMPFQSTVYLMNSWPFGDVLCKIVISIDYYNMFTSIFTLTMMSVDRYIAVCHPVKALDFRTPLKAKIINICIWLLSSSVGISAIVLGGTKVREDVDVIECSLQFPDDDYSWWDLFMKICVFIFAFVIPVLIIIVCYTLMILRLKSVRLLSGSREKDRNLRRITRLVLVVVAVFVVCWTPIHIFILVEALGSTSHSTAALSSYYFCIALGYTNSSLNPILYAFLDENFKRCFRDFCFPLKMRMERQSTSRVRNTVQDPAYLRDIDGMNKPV
Chain of human KOR (P41145 whole entry): as the sequence (P41145 whole entry, the tested form may be a part) above

Oc1ccc2c3c1O[C@H]1c4[nH]c5c(c4C[C@@]4(O)[C@@H](C2)N(CC2CC2)CC[C@]314)C[C@@]1(O)[C@H]2Cc3ccc(O)c4c3[C@@]1(CCN2CC1CC1)[C@H]5O4 [NorBNI, Norbinaltorphimine, reference compound]
Antagonism of agonist-induced antinociception (tail flick) (C57BL/6 mice [1]; NorBNI 15 mg/kg ip, 10 min before U50,488H or triazole 1.1): fully antagonized the antinociception produced by both compounds | Blockade of U50,488H effects on ICSS (male Fisher 344 rats [2]): blocked | Blockade of analgesic effect of triazole 1.1 on lactic acid-suppressed ICSS (male Fisher 344 rats [3]; NorBNI 32 mg/kg prior): completely blocked | Blockade of antipruritic effects of triazole 1.1 (C57BL/6 mice [4]): blocked the antipruritic effects of triazole 1.1

Cc1ccc(CSc2nnc(-c3ccccn3)n2Cc2ccco2)cc1C(F)(F)F [Triazole 1.1, 2-(4-(furan-2-ylmethyl)-5-((4-methyl-3-(trifluoromethyl)benzyl)thio)-4H-1,2,4-triazol-3-yl)pyridine]
Effect on evoked dopamine release, nucleus accumbens core ([5]; 10-1000 nM): no measureable decreases in the core | Effect on evoked dopamine release, nucleus accumbens shell ([5]; 10-1000 nM): a modest decrease in the shell only at the highest concentration tested | EC50 for decrease in dopamine release, nucleus accumbens core ([5]; 10-1000 nM cumulative): nonconvergence of curves | EC50 for decrease in dopamine release, nucleus accumbens shell ([5]; 10-1000 nM cumulative): nonconvergence of curves | [35S]GTPγS binding assay Emax (human KOR): 101 ± 5% | Effect on dopamine concentration in nucleus accumbens (microdialysis) [6]: did not significantly affect dopamine concentrations | Response latency (%MPE) in warm water tail flick assay (C57BL/6 mice [1]; C57BL/6 mice, sc, 20 min after injection, 10-s cutoff): produced an increase in response latency in a dose-dependent manner | Antinociceptive efficacy in KOR-KO mice (tail flick) (C57BL/6 mice [1]; KOR-KO mice, 30 mg/kg, ip): Neither drug had efficacy in KOR-KO mice | EC50 (KOR in mouse striatum): 497 ± 34 nM | βarrestin2 enzyme fragment complementation assay Emax [7]: 98 ± 4% | Effect on lactic acid-induced suppression of ICSS (EF50 and Rmax) (male Fisher 344 rats [3]; […] lactic acid ip, ketoprofen 1 mg/kg sc, U50,488H 6 mg/kg): suppressed the effect of lactic acid compared to vehicle administration | Locomotor activity (ambulation) in open field over 1 hour (C57BL/6J male mice): did not affect locomotor activity at any of the doses tested | Brain penetration (tissue content in whole brain) [8]: brain-penetrant | Preference for G protein signaling over βarrestin2 recruitment (KOR [9]): displays a preference for G protein signaling over βarrestin2 recruitment | Reduction of specific [3H]U69,593 binding in striatum compared to untreated mice (striatal KOR): 40% | Bias factor G/β (10^ΔΔLogR) (KOR [10]; G protein/βarrestin2): 28 | ΔΔLogR (ΔLogR of [35S]GTPγS − ΔLogR of βarrestin2 EFC) (KOR [10]; with 95% CI): 1.44 (1.29 to 1.60)

RB-64
Conditioned place aversion (CPA) (mice [11]): produces conditioned place aversion (CPA) in mice | Bias for G protein signaling over βarrestin2 recruitment (KOR [12]): displays bias for G protein signaling over βarrestin2 recruitment | Antinociceptive efficacy and locomotor activity (mice [13]): preserves antinociceptive efficacy without decreasing locomotor activity
